Results as given in patent US11458201B2, “Mucosal active agent delivery” (Suda Ltd., priority 2016, dated 2022).
Counter-ions that a name gives are not always drawn. Like-named read-outs stand apart in the source and are kept apart here.

What was measured:
[1] = In vitro single hydrotrope permeability experiments, coated artificial membranes (Franz cell); format: in vitro ADME
Description: The solutions thus contain the exact same concentration of active agent in the presence or absence of hydrotrope. The samples may then be tested for permeability through an artificial membrane under identical conditions so that the effect of the hydrotrope on the permeability of the active can be assessed.
Regenerated cellulose membrane filters are coated with lecithin in dodecane for permeation experiments. […] Air bubbles are removed before donor chamber is clamped. The filter is incubated for 1 h and any excess lecithin solution is then removed. All samples are continuously stirred on a magnetic plate at 300 rpm for duration of pre-incubation and subsequent permeation experiment.
After membrane preparation and equilibration, 240 uL each of formulation at buffer pH 6.8 are added to the donor chamber.

[2] = cited from earlier work; for logP: as listed in table of actives by hydrotrope class; for log P: list of suitable active agents
porcine buccal mucosa = experiment: Ex vivo permeability experiments, porcine buccal membranes in Franz cells; format: in vitro ADME, domestic pigs (Sus scrofa domestica)
Description: Buccal tissue from domestic pigs (Sus scrofa domestica) were obtained from a local abattoir directly after slaughter and immediately placed on ice. Within 2 hours of collection, tissue is prepared for delivery experiments. For permeation experiments tissue is placed in pH 6.8 PBS and epithelium separated from the connective tissue using surgical dissection or by contact in solution (pH 6.8 PBS) heated to 65° C. for 60 seconds. Surgical dissection is preferred method for maintaining intact epithelia with minimal impact on integrity which can occur with heating. After isolation, tissue is placed on Franz cell receiver chamber filled with PBS at pH optimised for permeant solubility and containing micro-stirring bar. Air bubbles are removed before donor chamber is clamped. The exposed epithelial surface is pre-incubated in pH 6.8 PBS in air incubator heated to 37° C. for minimum 15 minutes to equilibrate to temperature. All samples are continuously stirred on a magnetic plate at 300 rpm for duration of pre -incubation and subsequent permeation experiment. After equilibration, the donor chamber buffer is removed by pipette and replaced with active agent solution to be tested. […] At time 0 samples of 200 ul is removed from receiver chamber and 200 ul volume replaced with buffer. Samples taken at timed intervals (standard 15, 30, 60 minutes) are 200 ul volumes removed from side arm of receiver chamber using gel-loading pipette tips. Removed samples are placed in HPLC tubes for HPLC analysis. After each sample is taken the 200 ul volume is replaced with PBS […] buffer to maintain constant volume in receiver chamber (which will dilute slightly each subsequent sample).

[3] = In vivo studies in rabbits, buccal administration, blood PK; design: species or system rabbits (Oryctolagus cuniculus) New Zealand White; conditions: rabbit, buccal single dose 20 mg, 2.5% caffeine and 7.5% nicotinamide (F4) in comparison to the Base formulation, FIG. 14
Description: Ten male rabbits (Oryctolagus cuniculus) Strain New Zealand White (NZW) aged 8-12 weeks were delivered 5 days prior to the experiment for acclimatisation. The animals were kept in a controlled environment (targeted ranges: temperature 21±3° C., humidity 30-70%), with a light/dark cycle each of 12 hours, and under barrier (quarantine) conditions. Temperature and relative humidity was monitored continuously throughout the study duration. Feed consisted of Rabbit and Guinea Pig pellets. Municipal town water was supplied ad libitum. Dietary enrichment was provided during the acclimation period in the form of fresh fruit and vegetables. Enrichment items were not provided following randomisation into study groups and during dose administration.
Prior to dose administration, a total of ten male NZW rabbits were randomized into two groups of five based on body weight. Each animal group was allocated to receive a different sildenafil Formulation (either sildenafil Formulation 4 (F4) or sildenafil Base formulation (see Example 2)). […]
Portions of whole blood (400 μL) were collected into K2EDTA blood tubes then centrifuged and the resulting […] prior to analysis by LC-MS/MS. Peak concentration in blood (Cmax), Time to reach Cmax (Tmax), half-life (t1/2) and area under curve (AUC) were calculated.

[4] = single hydrotrope screen, formulation at buffer pH 6.8, same active concentration with and without hydrotrope
[5] = formulated with Class A hydrotrope caffeine, sweeteners and flavours vs same formulation minus the hydrotrope content, FIG. 13
[6] = as listed with results of FIGS. 3-9
[7] = sildenafil citrate formulations containing hydrotropes (Table 4) vs Base, FIGS. 11A and 11B

Structure (SMILES)	penetration through an artificial membrane in the presence of various hydrotropes (most effective hydrotrope) [1, 4]	logP [2]	log P or log D [2, 6]	log P [2]	also measured
O=C(O)Cc1ccccc1Nc1c(Cl)cccc1Cl [Diclofenac sodium, diclofenac sodium]	–	–	–	–	penetration through an artificial membrane in the presence of various hydrotropes (most effective hydrotrope) ([1]; hydroalcoholic solution): caffeine most effective; log P or log D ([2]; hydroalcoholic solution): 4.75
CN(C)CCOC(C)(c1ccccc1)c1ccccn1 (stereo not shown) [Doxylamine succinate, doxylamine succinate]	benzoic acid most effective	2.96	2.9	–	early permeation (porcine buccal mucosa; [5]): does not affect; total permeation (porcine buccal mucosa; [5]): increases total permeation
CC(C)Cc1ccc(C(C)C(=O)O)cc1 (stereo not shown) [Ibuprofen, ibuprofen]	no improvement	–	3.5	–	–
Cc1nccn1CC1CCc2c(c3ccccc3n2C)C1=O (stereo not shown) [Ondansetron HCl, ondansetron hydrochloride]	nicotinamide or caffeine most effective	Ondansetron HCl (logP 2.4	2.4	2.4	hydrotrope class giving the greatest increases in permeability [1]: Class A hydrotropes
CCCc1nn(C)c2c(=O)[nH]c(-c3cc(S(=O)(=O)N4CCN(C)CC4)ccc3OCC)nc12 [Sildenafil citrate, sildenafil citrate]	–	–	–	–	bioavailability of sildenafil [3]: marked increase; log D ([2]; pH 7): 1.6; log P or log D ([2]; pH 7): 1.6
CNS(=O)(=O)Cc1ccc2[nH]cc(CCN(C)C)c2c1 [Sumatriptan succinate, sumatriptan succinate]	benzoic acid most effective	Sumatriptan succinate (logP 0.93	1.7	0.93	log D ([2]; pH 6): 1.7
Cc1ccc(-c2nc3ccc(C)cn3c2CC(=O)N(C)C)cc1 [Zolpidem tartrate, zolpidem tartrate]	citric acid most effective	Zolpidem tartrate (logP 1.2	1.2	1.2	–
Cn1c(=O)c2c(ncn2C)n(C)c1=O [caffeine]	–	–	–	–	effect on early permeation (porcine buccal mucosa; [7]): limited effect; effect on total permeation (porcine buccal mucosa; [7]): increases total permeation
